The source of these data is patent US20070078172A1, “MAO-B INHIBITORS USEFUL FOR TREATING OBESITY” (JENRIN DISCOVERY, priority 2005, published 2007).

One series has as its system Plasma leptin. Description: Plasma leptin levels by commercial radioimmunoassay kit. In kind it is in vivo, rat. The following applies: rats, 10.0 mg/kg orally once daily, end of 14 week study, vs control. The procedure: (§1) Single-housed rats weighing 230-350 grams at the start of the experiment were provided free access to laboratory rodent chow pellets and tap water. Rats were divided into two groups, eight rats per group, matched for food intake and body weight over a two week baseline period. […] The second group of rats (control rats) was similarly administered drug vehicle (0.25% methyl cellulose solution). Body weight and food intake were measured once a week for 14 weeks.
At the end of the experiment, rats were killed by exposure to carbon dioxide. Blood was collected by cardiac puncture, and rats were shaved and eviscerated. Retroperitoneal white adipose tissue, epidydimal white adipose tissue, adrenal gland, liver, kidney and testes were rapidly dissected and weighed. Plasma leptin levels were measured using a commercial radioimmunoassay kit.

Series [1] can be described thus: Terminal tissue and organ weights (fat pads, adrenal gland, liver, kidney, testes). The following applies: 10.0 mg/kg orally once daily, end of 14 week study.
Series [2] in a line: Terminal carcass composition (lipid, water, fat free dry weight). It is filed as in vivo, rat. The conditions noted are these: 10.0 mg/kg orally once daily. How it is done:
as §1
Terminal carcass composition was measured. Shaved, eviscerated rats were coarsely ground and dried to a constant weight at 70° C. Dehydrated carcasses were finely ground in a blender. Lipid was extracted from a homogeneous sample with petroleum ether. Water and lipid contents were determined gravimetrically, and the remaining carcass component was termed fat free dry weight.

A short description of series [3]: Body weight and food intake in rats dosed for 14 weeks. In kind it is in vivo, rat. How it is done: as §1

Take `C#CCN(C)[C@H](C)Cc1ccccc1` [L-selegiline]: the “plasma leptin levels reduced” value in the series with Plasma leptin was 41%. For the same molecule, in series [1], the “epidydimal fat pad weighed less than in control rats” value came out at 23% and the “retroperitoneal fat pad weighed less than in control rats” value was 27%. In addition, in series [1] (rats), the “weight of non-fat organs (adrenal gland, liver, kidney, testes)” value is “did not weigh less”. Also, the “adipose tissue gain less than that of untreated control rats” value in series [2] (14 weeks) stood at 94%. For the same molecule, the “share of the overall 34 gram weight loss accounted for by body fat reduction” value in series [2] (rats, 14 weeks) is recorded as 94%. In series [2] (rats, terminal carcass), the lean body mass result was “no reduction” and the “whole carcass water content” value is “no reduction”. Also, the “lower weight gain compared to control rats” value in series [3] (10.0 mg/kg L-selegiline hydrochloride orally by gavage once daily, 14 week study) amounted to 14%. Further, the “weight gain less than untreated counterparts” value in series [3] (10.0 mg/kg orally once daily, 14 week study) is given as “approximately 34 g”. Moreover, the “food intake versus control group” value in series [3] (10.0 mg/kg orally once daily, 14 weeks) is given as “comparable”.
